Measured values as given in patent US10448635B2, “Modulation of plant biology” (FBSCIENCES HOLDINGS, INC., priority 2012, dated 2019).

How the values were obtained:
Format in all cases: in vivo
[1] = system: tomato plants (Lycopersicon es.); assay: Experiment Fe-4: foliar CPPA, Fe (FeSO4) or CPPA and Fe on tomato plants; details: for Leaf # / Vigor / Plt. Ht. / Plt. Wt. / Root Wt. / Shoot Wt.: tomato, foliar
Excerpt: Experiment Fe-4: The purpose of this experiment was to determine if the addition of low levels of iron to a CPPA sample containing lower than typical amounts of iron (e.g., Fe/TOC=0.135) would increase the biological response of plants. Nominal Fe/TOC ratios for CPPA range from 0.10 to 0.28 but the optimum ratio for “as-is” samples of CPPA, as determined in the previous experiments, is between 0.2 and 0.25. Thus, for this experiment, non-agrochemically effective amounts of iron were combined with CPPA samples. Tomato plants (Lycopersicon es.) were produced from seed and transplanted into 3 inch by 3 inch pots. There were 16 treatments plus an untreated check with 20 replicates per treatment arranged in a Randomized Complete Block design. Pots were treated with water (UTC), or CPPA only (3 different rates), Fe only (3 different rates), or CPPA and Fe at each of the rates. The CPPA rates corresponded to 260, 520, and 1040 mg organic carbon (TOC) per hectare and the Fe rates corresponded to 130, 260, and 520 mg Fe per hectare. All pots were treated by foliar application immediately after transplanting. Ten days after the application, ten of the plants were harvested and assessed for vigor, leaf number, plant height, plant weight, root weight, and shoot weight. […] Additional application rates of CPPA and Fe were evaluated with similar synergistic results observed for the combination of CPPA with amounts of iron. Twenty days after transplanting, the remaining ten plants in each treatment were assessed.

[2] = system: plants and/or seeds; assay: Summary observations: CPPA treated with cation exchange resin, Fe alone and Fe added back; details: seed treatment
Method: The plant biological response was generally observed to be better when a stoichiometric amount of Fe was added back (relative to the amount of CPPA or its TOC value) rather than an excess amount. […] These observations support the premise that the combination of CPPA and Fe are synergistic in their interaction and biological effect on plants and/or seeds.

[3] = system: tomato plants (Lycopersicon es.); assay: Experiment Salt-1: CPPA/NaCl composition, foliar application; details: NaCl 2600 mg/ha
Method: Experiment Salt-1: […] There were a total of 5 treatments plus an untreated check, each with 10 replicates per treatment arranged in a randomized block design. […] Each treatment comprised samples treated with CPPA alone, salt alone, or CPPA plus salt. Two rates of CPPA were used; the first was equivalent to 520 mg of TOC per hectare and a second equivalent to 1040 mg of TOC per hectare. Salt was applied at a rate equivalent to 2.6 g of salt per hectare. All treatments were diluted with water to provide a final spray volume equivalent to 208 lit per hectare, made with a spray bottle, with just enough spray solution to wet the leaf surface of each plant. Ten days after treatment the plants were assessed for vigor, leaf number, plant height, plant weight, root weight, shoot weight, and leaf conductance using a SPAD meter and are summarized in Table 8 and depicted in FIGS. 10-16.

[4] = 0 mg TOC/ha + 130 mg Fe/ha, 20 days after application
[5] = 0 mg TOC/ha + 520 mg Fe/ha, 10 days after application
[6] = 0 mg TOC/ha + 520 mg Fe/ha, 20 days after application
[7] = foliar at transplanting, 10 days after treatment

O=S(=O)([O-])[O-].[Fe+2] [Fe, FeSO4]
biological effect on plant, root and shoot weights versus UTC ([1]; Fe alone 520 mg Fe/ha, 20 days): apparent slightly negative biological effect
Leaf # [1, 4]: 6.3 ab
Vigor [1, 4]: 2.1 c
Leaf # [1, 5]: 6.6 ab
Plt. Ht. [1, 5]: 4.2 b
Plt. Wt. [1, 5]: 4.9 b
Root Wt. [1, 5]: 1.4 bc
Shoot Wt. [1, 5]: 3.6 b
Vigor [1, 5]: 3.8 b
Leaf # [1, 6]: 5.1 b
Plt. Ht. [1, 6]: 6.3 b
Plt. Wt. [1, 6]: 4.5 b
Root Wt. [1, 6]: 1.6 bc
Shoot Wt. [1, 6]: 2.9 cd
Vigor [1, 6]: 2.5 c
root development [2]: negative effect
shoot development [2]: negative effect

[Cl-].[Na+] [NaCl]
Leaf # [3, 7]: 5.3 e
Plt. Ht. [3, 7]: 3.5 b
Plt. Wt. [3, 7]: 2.7 c
Root Wt. [3, 7]: 0.8 jc
Shoot Wt. [3, 7]: 2.0 c
Vigor [3, 7]: 2.4 b
phytotoxicity of salt treatment alone ([3]; foliar, 10 days): significant amount of phytotoxicity
SPAD ([3]; leaf conductance using a SPAD meter, foliar at transplanting, 10 days after treatment): 24.2 b
